Assay results: patent US6624149B2, “Method for nucleic acid transfection of cells” (Genteric, Inc., priority 2000, dated 2003)
Several values for one entry are separate records, joined by “and”; a condition that tells them apart may be missing. Identical values can stand only once.

Tested on: NIH 3T3 cells
Experiment: Cationic liposome-mediated transfection of cultured cells, luciferase assay
Assay type: cell-based, murine
Conditions: for Luciferase activity, Average / Luciferase activity, Trial 1 to Trial 4: 48 hours; for Luciferase activity, Trial 1 to Trial 4: individual trials
Method: In one embodiment, an appropriate mass of cationic lipid and the neutral lipid dioleoylphosphatidylethanolamine (DOPE) was added as solutions in chloroform to 1.9 mL sample vials to yield the desired molar ratio of cationic lipid:DOPE. The chloroform was removed via rotary evaporation at 37° C. The resulting thin lipid films were placed under vacuum overnight to insure that all traces of solvent have been removed. The lipid mixture was resuspended in 1 mL sterile water at 25° C. until the film is hydrated, and then vortex mixed to afford an emulsion. For the in vitro experiments, these emulsions were formulated as a cationic lipid concentration of 1 mM. For the in vivo experiments, the emulsions were formulated at a cationic lipid concentration of 3 mM.
NIH 3T3 cells were obtained from ATCC (CRL 1658), cultured in Dulbecco's Modified Eagle's Medium with ten percent calf serum, and plated on standard 24 well tissue culture plates 24 hours prior to transfection. Cells were approximately eighty percent confluent at the time of transfection.
NIH 3T3 cells were plated onto 24 well tissue culture plates as described in section 6.1.10. The growth media was removed via aspiration and the cells were washed once with 0.5 mL PBS/well. The liposome/transition metal/nucleic acid solutions were formed through sequential addition of appropriate amounts of DMEM (without serum), the liposome solution (1:1 N,N-[Bis(2-hydroxyethyl)]-N-methyl-N-[2,3-bis(tetradecanoyloxy)propyl] ammonium chloride (DMDHP):DOPE, zinc chloride, and the plasmid DNA pCMV.FOX.Luc.2. The amount of liposome solution used depended on the desired cationic lipid to DNA phosphate ratio. The addition of these substances was followed by thorough vortex mixing and incubation for 15 minutes at room temperature. A 200 microliter aliquot of the resultant transfection complex was added to each well (1 microgram DNA/well, n=4) and the cells were incubated for 4 hours, at 37° C. At this time, 500 microliters of DMEM+10% calf serum/well was added and the cells cultured for approximately 48 hours prior to lysis and analysis. The sample transfections were subsequently repeated a minimum of three times prior to lysis and analysis.
The presently claimed invention describes a new method using a combination of cationic lipid, transition metal enhancer and a nucleic acid of interest for gene delivery. The present invention provides a method that may enhance gene expression by improving the efficiency of gene delivery. This change in gene expression can be quantitated using various assays, such as the luciferase assay. de Wet et al., Molec. Cell Biol. 7:725, 1987. In in vitro experiments described herein in which a cationic lipid/transition metal enhancer/nucleic acid complex was used, the cells were lysed, using a lysis buffer, 48 hours post administration of the pCMV.FOX.Luc-2 containing solution. The lysis buffer contained 100 mM K2PO4 pH 7.0, 1 mM dithiothreitol, and 1% Triton X-100. A 25 μl aliquot of the lysate was analyzed for luciferase activity (de Wet et al., Molec. Cell Biol. 7:725, 1987) using a Monolight 2010 luminometer (Analytical Luminescence Laboratories). Accordingly, luciferase light emissions from each aliquot of the lysis homogenate were measured over a ten second period. Activity was expressed as relative light units, values collectively representing the assay conditions, luciferase concentration, luminometer photomultiplier tube sensitivity and background. Using well known techniques, the luciferase light units may be converted, for example, to picograms of luciferase protein. See, e.g., Felgner et al., U.S. Pat. No. 5,580,899 at Example 13.
To perform this study, cationic lipid/nucleic acid/zinc mixtures were prepared by mixing appropriate amounts of serum-free DMEM, cationic liposomes, zinc chloride and pCMV.FOX.Luc.2 plasmid DNA in a polystyrene tube. […]

[1] = charge ratio 0.5, ZnCl2 1000 μM
[2] = charge ratio 0.75, ZnCl2 0.1 μM
[3] = charge ratio 0.75, ZnCl2 100 μM
[4] = charge ratio 0.75, ZnCl2 1000 μM

Compound: [Cl-].[Cl-].[Zn+2] [ZnCl2, zinc chloride]
- Luciferase activity, Average (charge ratio 0.5, ZnCl2 0.1 μM): 357320 relative light units
- Luciferase activity, Average (charge ratio 0.5, ZnCl2 1 μM): 289649.8 relative light units
- Luciferase activity, Average (charge ratio 0.5, ZnCl2 10 μM): 296498.3 relative light units
- Luciferase activity, Average (charge ratio 0.5, ZnCl2 100 μM): 690512.3 relative light units
- Luciferase activity, Average [1]: 44053.75 relative light units
- Luciferase activity, Average [2]: 528118.8 relative light units
- Luciferase activity, Average (charge ratio 0.75, ZnCl2 1 μM): 141950 relative light units
- Luciferase activity, Average (charge ratio 0.75, ZnCl2 10 μM): 397689.3 relative light units
- Luciferase activity, Average [3]: 334007.5 relative light units
- Luciferase activity, Average [4]: 298625.5 relative light units
- Luciferase activity, Average (charge ratio 1, ZnCl2 0.1 μM): 931446.8 relative light units
- Luciferase activity, Average (charge ratio 1, ZnCl2 1 μM): 835699.8 relative light units
- Luciferase activity, Average (charge ratio 1, ZnCl2 10 μM): 1366067 relative light units
- Luciferase activity, Average (charge ratio 1, ZnCl2 100 μM): 359188.5 relative light units
- Luciferase activity, Average (charge ratio 1, ZnCl2 1000 μM): 414392 relative light units
- Luciferase activity, Average (charge ratio 2, ZnCl2 0.1 μM): 677663.5 relative light units
- Luciferase activity, Average (charge ratio 2, ZnCl2 1 μM): 747069.5 relative light units
- Luciferase activity, Average (charge ratio 2, ZnCl2 10 μM): 1215879 relative light units
- Luciferase activity, Average (charge ratio 2, ZnCl2 100 μM): 827479.8 relative light units
- Luciferase activity, Average (charge ratio 2, ZnCl2 1000 μM): 109543.8 relative light units
- enhancement of in vitro transfection by added zinc (depending on the cationic lipid to nucleic acid charge ratio): two to forty
- Luciferase activity, Trial 1 to Trial 4 (charge ratio 0.5, ZnCl2 0.1 μM): 487868 relative light units and 426369 relative light units and 256897 relative light units and 258146 relative light units
- Luciferase activity, Trial 1 to Trial 4 (charge ratio 0.5, ZnCl2 1 μM): 385049 relative light units and 200471 relative light units and 304108 relative light units and 268971 relative light units
- Luciferase activity, Trial 1 to Trial 4 (charge ratio 0.5, ZnCl2 10 μM): 325001 relative light units and 323001 relative light units and 250110 relative light units and 287881 relative light units
- Luciferase activity, Trial 1 to Trial 4 (charge ratio 0.5, ZnCl2 100 μM): 351939 relative light units and 252969 relative light units and 294018 relative light units and 1863123 relative light units
- Luciferase activity, Trial 1 to Trial 4 [1]: 43835 relative light units and 40236 relative light units and 59395 relative light units and 32749 relative light units
- Luciferase activity, Trial 1 to Trial 4 [2]: 613179 relative light units and 556656 relative light units and 437658 relative light units and 504982 relative light units
- Luciferase activity, Trial 1 to Trial 4 (charge ratio 0.75, ZnCl2 1 μM): 127339 relative light units and 236302 relative light units and 123913 relative light units and 80246 relative light units
- Luciferase activity, Trial 1 to Trial 4 (charge ratio 0.75, ZnCl2 10 μM): 455299 relative light units and 465986 relative light units and 362168 relative light units and 307304 relative light units
- Luciferase activity, Trial 1 to Trial 4 [3]: 404983 relative light units and 351094 relative light units and 358591 relative light units and 221362 relative light units
- Luciferase activity, Trial 1 to Trial 4 [4]: 335343 relative light units and 257292 relative light units and 374511 relative light units and 227356 relative light units
- Luciferase activity, Trial 1 to Trial 4 (charge ratio 1, ZnCl2 0.1 μM): 901184 relative light units and 862221 relative light units and 1113520 relative light units and 848862 relative light units
- Luciferase activity, Trial 1 to Trial 4 (charge ratio 1, ZnCl2 1 μM): 942667 relative light units and 864670 relative light units and 799992 relative light units and 735470 relative light units
- Luciferase activity, Trial 1 to Trial 4 (charge ratio 1, ZnCl2 10 μM): 2145687 relative light units and 1433861 relative light units and 1202748 relative light units and 681970 relative light units
- Luciferase activity, Trial 1 to Trial 4 (charge ratio 1, ZnCl2 100 μM): 262768 relative light units and 379927 relative light units and 447492 relative light units and 346567 relative light units
- Luciferase activity, Trial 1 to Trial 4 (charge ratio 1, ZnCl2 1000 μM): 437998 relative light units and 443459 relative light units and 502263 relative light units and 273848 relative light units
- Luciferase activity, Trial 1 to Trial 4 (charge ratio 2, ZnCl2 0.1 μM): 596911 relative light units and 685311 relative light units and 818392 relative light units and 610040 relative light units
- Luciferase activity, Trial 1 to Trial 4 (charge ratio 2, ZnCl2 1 μM): 661803 relative light units and 814409 relative light units and 754168 relative light units and 757898 relative light units
- Luciferase activity, Trial 1 to Trial 4 (charge ratio 2, ZnCl2 10 μM): 1498720 relative light units and 1238992 relative light units and 1207690 relative light units and 918114 relative light units
- Luciferase activity, Trial 1 to Trial 4 (charge ratio 2, ZnCl2 100 μM): 768327 relative light units and 880621 relative light units and 941720 relative light units and 719251 relative light units
- Luciferase activity, Trial 1 to Trial 4 (charge ratio 2, ZnCl2 1000 μM): 199493 relative light units and 48657 relative light units and 189902 relative light units and 123 relative light units
